Structures can show the parent of a compound that is named as a salt.
target: human SGLT2 (Homo sapiens (Human), UniProt P31639); test: Inhibitory effects on human SGLT2 activities (14C-AMG uptake, sodium-dependent glucose transport assay); assay type: cell-based; settings: CHO cells stably expressing hSGLT2, 37° C., 2 h, single determinations
Method in brief: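 CHO cells stably expressing hSGLT2 were preincubated 10 min at 37 °C in choline (Na+-free) buffer, then exposed 2 h at 37 °C to compound in Na+ uptake buffer with 8 μM 14C-AMG and 1 mM unlabeled AMG. Radioactivity was scintillation counted; IC50 came from nonlinear regression.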

Sequence of human SGLT2 (P31639 whole entry): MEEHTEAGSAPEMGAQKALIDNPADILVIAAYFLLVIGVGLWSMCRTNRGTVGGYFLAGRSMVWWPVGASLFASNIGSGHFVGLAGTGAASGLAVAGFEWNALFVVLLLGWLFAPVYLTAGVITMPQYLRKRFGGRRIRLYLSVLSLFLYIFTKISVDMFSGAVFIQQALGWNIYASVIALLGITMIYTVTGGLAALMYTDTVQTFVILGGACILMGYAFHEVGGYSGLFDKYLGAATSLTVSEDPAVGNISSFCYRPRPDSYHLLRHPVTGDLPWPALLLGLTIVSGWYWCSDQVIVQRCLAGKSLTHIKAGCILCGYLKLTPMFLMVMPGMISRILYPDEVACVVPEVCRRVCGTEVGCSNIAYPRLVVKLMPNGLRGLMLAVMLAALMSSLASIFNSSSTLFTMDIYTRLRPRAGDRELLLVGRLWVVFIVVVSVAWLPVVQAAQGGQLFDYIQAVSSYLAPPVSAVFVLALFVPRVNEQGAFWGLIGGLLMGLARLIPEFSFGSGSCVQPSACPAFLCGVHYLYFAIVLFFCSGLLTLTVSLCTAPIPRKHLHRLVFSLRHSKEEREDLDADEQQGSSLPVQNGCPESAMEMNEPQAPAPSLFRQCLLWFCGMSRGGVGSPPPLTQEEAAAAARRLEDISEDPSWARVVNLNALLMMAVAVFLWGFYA

Point of comparison: `COc1ccc(Cc2cc([C@@H]3O[C@H](CO)[C@@H](O)[C@H](O)[C@H]3O)c3c(c2Cl)CCCO3)cc1` [Example E016, (2S,3R,4R,5S,6R)-2-(5-Chloro-6-(4-methoxybenzyl)chroman-8-yl)-6-(hydroxymethyl)tetrahydro-2H-pyran-3,4,5-triol], IC50 0.978 nM. Against it:
- CCOc1ccc(Cc2cc([C@@H]3O[C@H](S(C)(=O)=O)[C@@H](O)[C@H](O)[C@H]3O)c(OC)cc2Cl)cc1 [Example E112, (2S,3R,4R,5S,6R)-2-(4-Chloro-5-(4-ethoxybenzyl)-2-methoxyphenyl)-6-(methylsulfonyl)tetrahydro-2H-pyran-3,4,5-triol] — 7.6-fold higher, 7.44 nM
- N#CCc1ccc(Cc2cc([C@@H]3O[C@H](CO)[C@@H](O)[C@H](O)[C@H]3O)c3c(c2Cl)OCC3)cc1 [Example E203, 2-(4-((7-Chloro-4-((2S,3R,4R,5S,6R)-3,4,5-trihydroxy-6-(hydroxymethyl)tetrahydro-2H-pyran-2-yl)-2,3-dihydrobenzofuran-6-yl)methyl)phenyl)acetonitrile] — 1.9-fold higher, 1.81 nM
- OCCCOc1ccc(Cc2cc([C@@H]3O[C@H](CO)[C@@H](O)[C@H](O)[C@H]3O)c3c(c2Cl)OCC3)cc1 [Example E193, (2S,3R,4R,5S,6R)-2-(7-Chloro-6-(4-(3-hydroxypropoxy)benzyl)-2,3-dihydrobenzofuran-4-yl)-6-(hydroxymethyl)tetrahydro-2H-pyran-3,4,5-triol] — 1.9-fold higher, 1.87 nM
- C=CCOc1cc(Cl)c(Cc2ccc(OC)cc2)cc1[C@@H]1O[C@H](SC)[C@@H](O)[C@H](O)[C@H]1O [Example E110, (2S,3R,4R,5S,6R)-2-(2-(Allyloxy)-4-chloro-5-(4-methoxybenzyl)phenyl)-6-(methylthio)tetrahydro-2H-pyran-3,4,5-triol] — 1.9-fold lower, 0.504 nM
- CCOc1ccc(Cc2cc([C@@H]3O[C@H](CO)[C@@H](O)[C@H](O)[C@H]3O)c3c(c2Cl)OCC3=O)cc1 [Example E226] — 11-fold higher, 10.5 nM
- OC[C@H]1O[C@@H](c2cc(Cc3ccc(Cl)cc3)c(Cl)c3c2OCC3)[C@H](O)[C@@H](O)[C@@H]1O [Example E123, (2S,3R,4R,5S,6R)-2-(4-Chloro-5-(4-chlorobenzyl)-2,3-dihydrobenzofuran-7-yl)-6-(hydroxymethyl)tetrahydro-2H-pyran-3,4,5-triol] — 1.9-fold higher, 1.82 nM
- COc1ccc(Cc2cc([C@@H]3O[C@H](CO)[C@@H](O)[C@H](O)[C@H]3O)c3c(c2Cl)CC(C)S3)cc1 (stereo partly drawn) [Example E142, (2S,3R,4R,5S,6R)-2-(4-Chloro-5-(4-methoxybenzyl)-2-methyl-2,3-dihydrobenzo[b]thiophen-7-yl)-6-(hydroxymethyl)tetrahydro-2H-pyran-3,4,5-triol] — within 1.5-fold, 1.09 nM
- CCOc1ccc(Cc2cc([C@@H]3O[C@H](CO)[C@@H](O)[C@H](O)[C@H]3O)cc(-c3ccccc3)c2C)cc1 [Example E077] — 3.9-fold higher, 3.84 nM
- OC[C@H]1O[C@@H](c2ccc(Cl)c(Cc3ccc4c(c3)OCO4)c2)[C@H](O)[C@@H](O)[C@@H]1O [Example E056, (2S,3R,4R,5S,6R)-2-(3-(Benzo[d][1,3]dioxol-5-ylmethyl)-4-chlorophenyl)-6-(hydroxymethyl)-tetrahydro-2H-pyran-3,4,5-triol] — 2.6-fold higher, 2.58 nM
- COc1ccc(Cc2cc([C@@H]3O[C@H](CO)[C@@H](O)[C@H](O)[C@H]3O)c3c(c2Cl)CCC3)cc1 [Example E005, (2S,3R,4R,5S,6R)-2-(7-Chloro-6-(4-methoxybenzyl)-2,3-dihydro-1H-inden-4-yl)-6-(hydroxymethyl)tetrahydro-2H-pyran-3,4,5-triol] — within 1.5-fold, 0.681 nM
- CS[C@H]1O[C@@H](c2ccc(Cl)c(Cc3ccc4c(c3)OCCO4)c2)[C@H](O)[C@@H](O)[C@@H]1O [Example E091, (2S,3R,4R,5S,6R)-2-(4-Chloro-3-((2,3-dihydrobenzo[b][1,4]dioxin-6-yl)methyl)phenyl)-6-(methylthio)tetrahydro-2H-pyran-3,4,5-triol] — 1.6-fold lower, 0.629 nM
- CCOc1ccc(Cc2cc([C@@H]3O[C@H](CO)[C@@H](O)[C@H](O)[C@H]3O)c3c(c2Cl)OC(C)C3)cc1 (stereo partly drawn) [Example E135, (2S,3R,4R,5S,6R)-2-(7-Chloro-6-(4-ethoxybenzyl)-2-methyl-2,3-dihydrobenzofuran-4-yl)-6-(hydroxymethyl)tetrahydro-2H-pyran-3,4,5-triol] — 1.7-fold higher, 1.65 nM
- C=Cc1ccc(Cc2cc([C@@H]3O[C@H](CO)[C@@H](O)[C@H](O)[C@H]3O)c3c(c2Cl)CCC3)cc1 [Example E117, (2S,3R,4R,5S,6R)-2-(7-Chloro-6-(4-vinylbenzyl)-2,3-dihydro-1H-inden-4-yl)-6-(hydroxymethyl)tetrahydro-2H-pyran-3,4,5-triol] — within 1.5-fold, 0.742 nM
- CCOc1ccc(Cc2cc([C@@H]3O[C@H](CO)[C@@H](O)[C@H](O)[C@H]3O)c3c(c2Cl)OCCC3)cc1 [Example E157, (2S,3R,4R,5S,6R)-2-(8-Chloro-7-(4-ethoxybenzyl)chroman-5-yl)-6-(hydroxymethyl)tetrahydro-2H-pyran-3,4,5-triol] — within 1.5-fold, 1.28 nM
- CC(C)n1ncc2cc(Cc3cc([C@@H]4O[C@H](CO)[C@@H](O)[C@H](O)[C@H]4O)ccc3Cl)ccc21 [Example E039, (2S,3R,4R,5S,6R)-2-(4-Chloro-3-((1-isopropyl-1H-indazol-5-yl)methyl)phenyl)-6-(hydroxymethyl)tetrahydro-2H-pyran-3,4,5-triol] — 1.8-fold higher, 1.76 nM
- CCc1ccc(Cc2cc([C@@H]3O[C@H](CO)[C@@H](O)[C@H](O)[C@H]3O)c3c(c2Cl)CC(C)O3)cc1 (stereo partly drawn) [Example E132, (2S,3R,4R,5S,6R)-2-(4-Chloro-5-(4-ethylbenzyl)-2-methyl-2,3-dihydrobenzofuran-7-yl)-6-(hydroxymethyl)tetrahydro-2H-pyran-3,4,5-triol] — within 1.5-fold, 0.706 nM
- COc1ccc(Cc2cc([C@@H]3O[C@H](CO)[C@@H](O)[C@H](O)[C@H]3O)c3c(c2Cl)OCO3)cc1 [Example E161, (2S,3R,4R,5S,6R)-2-(7-Chloro-6-(4-methoxybenzyl)benzo[d][1,3]dioxol-4-yl)-6-(hydroxymethyl)tetrahydro-2H-pyran-3,4,5-triol] — within 1.5-fold, 1.15 nM
- CC(C)(O)c1ccc(Cc2cc([C@@H]3O[C@H](CO)[C@@H](O)[C@H](O)[C@H]3O)c3c(c2Cl)OCC3)cc1 [Example E175, (2S,3R,4R,5S,6R)-2-(7-Chloro-6-(4-(2-hydroxypropan-2-yl)benzyl)-2,3-dihydrobenzofuran-4-yl)-6-(hydroxymethyl)tetrahydro-2H-pyran-3,4,5-triol] — 2.1-fold higher, 2.03 nM
- CN(C)Cc1ccc(Cc2cc([C@@H]3O[C@H](CO)[C@@H](O)[C@H](O)[C@H]3O)c3c(c2Cl)OCC3)cc1 [Example E184, (2S,3R,4R,5S,6R)-2-(7-Chloro-6-(4-((dimethylamino)methyl)benzyl)-2,3-dihydrobenzofuran-4-yl)-6-(hydroxymethyl)tetrahydro-2H-pyran-3,4,5-triol trifluoro acetic acid salt] — 170-fold higher, 162 nM
- C#Cc1ccc(Cc2cc([C@@H]3O[C@H](CO)[C@@H](O)[C@H](O)[C@H]3O)c3c(c2Cl)OCC3)cc1 [Example E182, (2S,3R,4R,5S,6R)-2-(7-Chloro-6-(4-ethynylbenzyl)-2,3-dihydrobenzofuran-4-yl)-6-(hydroxymethyl)tetrahydro-2H-pyran-3,4,5-triol] — within 1.5-fold, 1.03 nM
- CSc1ccc(Cc2cc([C@@H]3O[C@H](CO)[C@@H](O)[C@H](O)[C@H]3O)c3c(c2Cl)CCCO3)cc1 [Example E154, (2S,3R,4R,5S,6R)-2-(5-Chloro-6-(4-(methylthio)benzyl)chroman-8-yl)-6-(hydroxymethyl)tetrahydro-2H-pyran-3,4,5-triol] — within 1.5-fold, 1.01 nM
- CCCc1ccc(Cc2cc([C@@H]3O[C@H](CO)[C@@H](O)[C@H](O)[C@H]3O)c3c(c2Cl)CC(C)O3)cc1 (stereo partly drawn) [Example E134, (2S,3R,4R,5S,6R)-2-(4-Chloro-2-methyl-5-(4-propylbenzyl)-2,3-dihydrobenzofuran-7-yl)-6-(hydroxymethyl)tetrahydro-2H-pyran-3,4,5-triol] — within 1.5-fold, 0.885 nM
- Cc1ccc(Cc2cc([C@@H]3O[C@H](CO)[C@@H](O)[C@H](O)[C@H]3O)c3c(c2Cl)CCC3)cc1 [Example E139, (2S,3R,4R,5S,6R)-2-(7-Chloro-6-(4-methylbenzyl)-2,3-dihydro-1H-inden-4-yl)-6-(hydroxymethyl)tetrahydro-2H-pyran-3,4,5-triol] — within 1.5-fold, 0.808 nM
- CCOc1ccc(Cc2cc([C@@H]3O[C@H](CO)[C@@H](O)[C@H](O)[C@H]3O)cc(-c3ccc(F)cc3)c2C)cc1 [Example E078] — 95-fold higher, 93.3 nM
- Cc1c(Cc2ccc3c(c2)OCCO3)cc([C@@H]2O[C@H](CO)[C@@H](O)[C@H](O)[C@H]2O)cc1-c1ccccc1 [Example E084, (2S,3R,4R,5S,6R)-2-(5-((2,3-Dihydrobenzo[b][1,4]dioxin-6-yl)methyl)-6-methylbiphenyl-3-yl)-6-(hydroxymethyl)-tetrahydro-2H-pyran-3,4,5-triol] — 5.4-fold higher, 5.3 nM
- CCOc1ccc(Cc2cc([C@@H]3O[C@H](CO)[C@@H](O)[C@H](O)[C@H]3O)c3c(c2Cl)OCCO3)cc1 [Example E013, (2S,3R,4R,5S,6R)-2-(8-Chloro-7-(4-ethoxybenzyl)-2,3-dihydrobenzo[b][1,4]dioxin-5-yl)-6-(hydroxymethyl)tetrahydro-2H-pyran-3,4,5-triol] — within 1.5-fold, 1.27 nM
- CCCc1c(Cc2ccc(OCC)cc2)cc([C@@H]2O[C@H](CO)[C@@H](O)[C@H](O)[C@H]2O)c2c1OCC2 [Example E229, (2S,3R,4R,5S,6R)-2-(6-(4-Ethoxybenzyl)-7-propyl-2,3-dihydrobenzofuran-4-yl)-6-(hydroxymethyl)-tetrahydro-2H-pyran-3,4,5-triol] — 5.7-fold higher, 5.6 nM
- COc1ccc(Cc2cc([C@@H]3O[C@H](CO)[C@@H](O)[C@H](O)[C@H]3O)c3c(c2Cl)OCCC3)cc1 [Example E156, (2S,3R,4R,5S,6R)-2-(8-Chloro-7-(4-methoxybenzyl)chroman-5-yl)-6-(hydroxymethyl)tetrahydro-2H-pyran-3,4,5-triol] — 2.1-fold higher, 2.09 nM

— patent US9034921B2, “Diphenylmethane derivatives as SGLT2 inhibitors” (GREEN CROSS CORPORATION, priority 2011, dated 2015)
